Source: patent US20220282217A1, “COMPOSITIONS AND METHODS FOR PREPARING T CELL COMPOSITIONS AND USES THEREOF” (priority 2019, published 2022)
Where a SMILES comes first, the peptide text is derived from it.

Biological target: HLA-A03.01 (Homo sapiens, UniProt P04439)
Test: Class I MHC peptide binding affinity (displacement of radiolabeled reference peptide)
Conditions: allele A03.01; read-out: Observed Affinity (IC50; (nM))

Row | IC50 [nM] | Compound
1 | 39.6 | C[C@@H](O)[C@H](NC(=O)[C@H](CCC(=O)O)NC(=O)[C@H](CCCCN)NC(=O)[C@H](CCCCN)NC(=O)[C@H](CCCCN)NC(=O)[C@H](CO)NC(=O)[C@@H](N)CCCCN)C(=O)N[C@@H](Cc1ccccc1)C(=O)N[C@@H](CCCCN)C(=O)N[C@@H](CCCCN)C(=O)O (H-KSKKKETFKK-OH; N-terminus and C-terminus assumed)
2 | 4.7 | CC(C)C[C@H](NC(=O)[C@H](CCC(N)=O)NC(=O)[C@H](CC(C)C)NC(=O)[C@H](Cc1c[nH]cn1)NC(=O)[C@H](CC(N)=O)NC(=O)[C@H](CCC(N)=O)NC(=O)[C@H](CCCNC(=N)N)NC(=O)[C@H](CO)NC(=O)[C@@H](N)CCCCN)C(=O)N[C@@H](CCCCN)C(=O)O (H-KSRQNHLQLK-OH; N-terminus and C-terminus assumed)
3 | 413 | CC(C)C[C@H](N)C(=O)N[C@@H](Cc1ccccc1)C(=O)N[C@@H](Cc1ccccc1)C(=O)N[C@@H](Cc1ccccc1)C(=O)N[C@@H](Cc1ccccc1)C(=O)N[C@@H](Cc1ccccc1)C(=O)N[C@@H](CCC(=O)O)C(=O)N[C@H](C(=O)N[C@@H](CCCCN)C(=O)O)[C@@H](C)O (H-LFFFFFETK-OH; N-terminus and C-terminus assumed)
4 | 749 | CSCC[C@H](NC(=O)[C@@H](NC(=O)[C@H](Cc1ccccc1)NC(=O)[C@@H](N)CC(C)C)C(C)C)C(=O)N[C@@H](CO)C(=O)N[C@@H](CC(=O)O)C(=O)N[C@H](C(=O)N[C@H](C(=O)N[C@@H](Cc1ccc(O)cc1)C(=O)N[C@@H](CCCCN)C(=O)O)[C@@H](C)O)[C@@H](C)O (H-LFVMSDTTYK-OH; N-terminus and C-terminus assumed)
5 | 6 | CSCC[C@H](NC(=O)[C@@H](N)CC(C)C)C(=O)N[C@@H](CC(C)C)C(=O)N[C@@H](CC(C)C)C(=O)N[C@@H](CCCNC(=N)N)C(=O)N[C@@H](CC(C)C)C(=O)N[C@@H](CC(N)=O)C(=O)N[C@@H](CC(C)C)C(=O)N[C@@H](CCCNC(=N)N)C(=O)N[C@@H](CCCCN)C(=O)O (H-LMLLRLNLRK-OH; N-terminus and C-terminus assumed)
6 | 8.6 | CC(C)[C@H](NC(=O)[C@@H](N)CCCNC(=N)N)C(=O)N[C@@H](CC(N)=O)C(=O)N[C@H](C(=O)N[C@@H](C)C(=O)N[C@@H](Cc1c[nH]c2ccccc12)C(=O)N[C@@H](CCCCN)C(=O)N[C@H](C(=O)N[C@@H](CCCCN)C(=O)O)[C@@H](C)O)[C@@H](C)O (H-RVNTAWKTK-OH; N-terminus and C-terminus assumed)
7 | 2.3 | CC(C)[C@H](NC(=O)[C@@H](N)CCCNC(=N)N)C(=O)N[C@@H](CC(N)=O)C(=O)N[C@H](C(=O)N[C@@H](C)C(=O)N[C@@H](Cc1c[nH]c2ccccc12)C(=O)N[C@@H](CCCCN)C(=O)N[C@H](C(=O)N[C@@H](CCCCN)C(=O)N[C@@H](CCCCN)C(=O)O)[C@@H](C)O)[C@@H](C)O (H-RVNTAWKTKK-OH; N-terminus and C-terminus assumed)
8 | 9.6 | CC(C)C[C@H](NC(=O)[C@H](C)NC(=O)[C@@H]1CCCN1C(=O)[C@@H](NC(=O)[C@H](CCCCN)NC(=O)[C@H](CCCCN)NC(=O)[C@H](CC(C)C)NC(=O)[C@@H](N)CO)C(C)C)C(=O)N[C@@H](CCCCN)C(=O)N[C@@H](CCCCN)C(=O)O (H-SLKKVPALKK-OH; N-terminus and C-terminus assumed)
9 | 9.8 | CC(C)C[C@H](NC(=O)[C@@H](NC(=O)[C@@H](N)[C@@H](C)O)[C@@H](C)O)C(=O)N[C@@H](CC(N)=O)C(=O)N[C@@H](CO)C(=O)N1CCC[C@H]1C(=O)N1CCC[C@H]1C(=O)N[C@@H](CC(C)C)C(=O)N[C@@H](CCCCN)C(=O)O (H-TTLNSPPLK-OH; N-terminus and C-terminus assumed)
10 | 14.3 | CC(C)C[C@H](NC(=O)[C@@H](NC(=O)[C@@H](N)[C@@H](C)O)[C@@H](C)O)C(=O)N[C@@H](CC(N)=O)C(=O)N[C@@H](CO)C(=O)N1CCC[C@H]1C(=O)N1CCC[C@H]1C(=O)N[C@@H](CC(C)C)C(=O)N[C@@H](CCCCN)C(=O)N[C@@H](CCCCN)C(=O)O (H-TTLNSPPLKK-OH; N-terminus and C-terminus assumed)
11 | 94.9 | CC(C)C[C@H](NC(=O)[C@H](C)NC(=O)[C@@H]1CCCN1C(=O)[C@@H](NC(=O)[C@H](CCCCN)NC(=O)[C@H](CCCCN)NC(=O)[C@H](CC(C)C)NC(=O)[C@H](CO)NC(=O)[C@@H](N)Cc1c[nH]c2ccccc12)C(C)C)C(=O)N[C@@H](CCCCN)C(=O)O (H-WSLKKVPALK-OH; N-terminus and C-terminus assumed)

The remaining lines, values behind:

Row | Compound | IC50 [nM]
12 | CSCC[C@H](NC(=O)[C@H](CC(C)C)NC(=O)[C@@H](N)CCCCN)C(=O)N[C@@H](CC(C)C)C(=O)N[C@@H](CC(C)C)C(=O)N[C@@H](CCCNC(=N)N)C(=O)N[C@@H](CC(C)C)C(=O)N[C@@H](CC(N)=O)C(=O)N[C@@H](CC(C)C)C(=O)N[C@@H](CCCNC(=N)N)C(=O)O (H-KLMLLRLNLR-OH; N-terminus and C-terminus assumed) | 48.4
13 | CSCC[C@H](NC(=O)[C@@H](N)CCCCN)C(=O)N[C@@H](CCCNC(=N)N)C(=O)N[C@@H](CCCCN)C(=O)N[C@@H](CCCCN)C(=O)N[C@@H](Cc1ccc(O)cc1)C(=O)N[C@@H](C)C(=O)N[C@@H](CCC(N)=O)C(=O)N[C@@H](CCCCN)C(=O)O (H-KMRKKYAQK-OH; N-terminus and C-terminus assumed) | 5.7
14 | CC(C)[C@H](NC(=O)[C@H](CCCNC(=N)N)NC(=O)[C@@H](N)CCCCN)C(=O)N[C@@H](CC(N)=O)C(=O)N[C@H](C(=O)N[C@@H](C)C(=O)N[C@@H](Cc1c[nH]c2ccccc12)C(=O)N[C@@H](CCCCN)C(=O)N[C@H](C(=O)N[C@@H](CCCCN)C(=O)O)[C@@H](C)O)[C@@H](C)O (H-KRVNTAWKTK-OH; N-terminus and C-terminus assumed) | 332
15 | C[C@@H](O)[C@H](NC(=O)[C@H](CCC(=O)O)NC(=O)[C@H](CCCCN)NC(=O)[C@H](CCCCN)NC(=O)[C@H](CCCCN)NC(=O)[C@H](CO)NC(=O)[C@@H](N)CCCCN)C(=O)N[C@@H](Cc1ccccc1)C(=O)N[C@@H](CCCCN)C(=O)O (H-KSKKKETFK-OH; N-terminus and C-terminus assumed) | 74.3
16 | C[C@@H](O)[C@H](NC(=O)[C@@H](N)CCCCN)C(=O)N[C@@H](Cc1ccccc1)C(=O)N[C@@H](CCC(=O)O)C(=O)N[C@@H](CCCCN)C(=O)N[C@@H](CCCCN)C(=O)NCC(=O)N[C@@H](CCC(=O)O)C(=O)N[C@@H](CCCCN)C(=O)O (H-KTFEKKGEK-OH; N-terminus and C-terminus assumed) | 32.2
17 | CC(C)C[C@H](NC(=O)[C@@H](N)CC(C)C)C(=O)N[C@H](C(=O)N[C@@H](CO)C(=O)N[C@@H](CO)C(=O)N[C@@H](CO)C(=O)N[C@@H](CCCNC(=N)N)C(=O)N[C@@H](CCC(=O)O)C(=O)N[C@@H](Cc1c[nH]c2ccccc12)C(=O)N[C@@H](CCCCN)C(=O)O)[C@@H](C)O (H-LLTSSSREWK-OH; N-terminus and C-terminus assumed) | 1770
18 | CC(C)C[C@H](NC(=O)[C@H](Cc1ccccc1)NC(=O)[C@H](CO)NC(=O)[C@@H](N)CC(C)C)C(=O)N[C@@H](CO)C(=O)N[C@@H](CO)C(=O)N[C@@H](Cc1c[nH]c2ccccc12)C(=O)N[C@@H](CC(=O)O)C(=O)N[C@@H](Cc1ccc(O)cc1)C(=O)N[C@@H](CCCNC(=N)N)C(=O)O (H-LSFLSSWDYR-OH; N-terminus and C-terminus assumed) | 101
19 | CC(C)C[C@H](N)C(=O)N[C@H](C(=O)N[C@@H](CO)C(=O)N[C@@H](CO)C(=O)N[C@@H](CO)C(=O)N[C@@H](CCCNC(=N)N)C(=O)N[C@@H](CCC(=O)O)C(=O)N[C@@H](Cc1c[nH]c2ccccc12)C(=O)N[C@@H](CCCCN)C(=O)O)[C@@H](C)O (H-LTSSSREWK-OH; N-terminus and C-terminus assumed) | 118
20 | CSCC[C@H](N)C(=O)N[C@@H](CC(C)C)C(=O)N[C@@H](CC(C)C)C(=O)N[C@@H](CCCNC(=N)N)C(=O)N[C@@H](CC(C)C)C(=O)N[C@@H](CC(N)=O)C(=O)N[C@@H](CC(C)C)C(=O)N[C@@H](CCCNC(=N)N)C(=O)N[C@@H](CCCCN)C(=O)O (H-MLLRLNLRK-OH; N-terminus and C-terminus assumed) | 1.3
21 | CC[C@H](C)[C@H](NC(=O)[C@H](CCCCN)NC(=O)[C@@H](N)CCCNC(=N)N)C(=O)N[C@@H](CO)C(=O)N[C@@H](CC(N)=O)C(=O)N[C@@H](Cc1c[nH]c2ccccc12)C(=O)N[C@@H](CO)C(=O)N[C@@H](CC(C)C)C(=O)N[C@@H](CCCCN)C(=O)N[C@@H](CCCCN)C(=O)O (H-RKISNWSLKK-OH; N-terminus and C-terminus assumed) | 131
22 | CSCC[C@H](NC(=O)[C@H](CC(C)C)NC(=O)[C@@H]1CCCN1C(=O)[C@@H](NC(=O)[C@H](CCCCN)NC(=O)[C@H](CCSC)NC(=O)[C@@H](N)CCCNC(=N)N)C(C)C)C(=O)N[C@@H](CCCCN)C(=O)O (H-RMKVPLMK-OH; N-terminus and C-terminus assumed) | 33
23 | CC(C)C[C@H](NC(=O)[C@@H](N)CO)C(=O)N[C@@H](CCC(N)=O)C(=O)N1CCC[C@H]1C(=O)N1CCC[C@H]1C(=O)N1CCC[C@H]1C(=O)N1CCC[C@H]1C(=O)NCC(=O)N[C@@H](Cc1ccccc1)C(=O)N[C@@H](CCCCN)C(=O)O (H-SLQPPPPGFK-OH; N-terminus and C-terminus assumed) | 19
24 | CC(C)C[C@H](NC(=O)[C@@H](N)[C@@H](C)O)C(=O)N[C@@H](CC(N)=O)C(=O)N[C@@H](CO)C(=O)N1CCC[C@H]1C(=O)N1CCC[C@H]1C(=O)N[C@@H](CC(C)C)C(=O)N[C@@H](CCCCN)C(=O)N[C@@H](CCCCN)C(=O)O (H-TLNSPPLKK-OH; N-terminus and C-terminus assumed) | 5.4
25 | CC[C@H](C)[C@H](NC(=O)[C@H](C)NC(=O)[C@H](CS)NC(=O)[C@@H](NC(=O)[C@H](Cc1ccc(O)cc1)NC(=O)[C@@H](N)[C@@H](C)O)[C@@H](C)O)C(=O)N[C@H](C(=O)N[C@H](C(=O)N[C@H](C(=O)N[C@@H](CCCCN)C(=O)O)C(C)C)[C@@H](C)O)[C@@H](C)O (H-TYTCAITTVK-OH; N-terminus and C-terminus assumed) | 2360
26 | CSCC[C@H](NC(=O)[C@@H](N)Cc1ccc(O)cc1)C(=O)N[C@@H](Cc1ccccc1)C(=O)N[C@@H](CC(C)C)C(=O)N[C@@H](CCCCN)C(=O)N[C@@H](C)C(=O)N[C@@H](CCC(=O)O)C(=O)N[C@@H](CO)C(=O)N[C@@H](CCCCN)C(=O)O (H-YMFLKAESK-OH; N-terminus and C-terminus assumed) | 79.8
